# Results taken from patent US20250144067A1, “PERSONALIZED STARVATION THERAPY FOR CANCER” (Faeth Therapeutics, Inc., priority 2021, published 2025).
# Where a name gives a salt, the structure may show the parent alone. Read-outs that look alike come from different tables or passages of the source.
# Tests used:
# [1] = tested on: NCI-H292 lung cancer cells; assay: FDA drug screening, complete media vs cholesterol-free media without statin (TABLE 1); format: cell-based, human
# [2] = tested on: NCI-H292 lung cancer cells; assay: FDA drug screening, complete media vs cholesterol-free media with simvastatin (TABLE 2); format: cell-based, human
# [3] = Complete minus Cholesterol-free, >0 enhanced anti-cancer activity, about 0 neutral, <0 antagonist
# [4] = NCI-H292 cells, cholesterol-free media without statin
# [5] = NCI-H292 cells, drug in cholesterol-free media with simvastatin 0.04 μM
# [6] = NCI-H292 cells, drug in complete media
# [7] = complete media vs cholesterol-free media + simvastatin (0.04 μM), >0 enhanced anti-cancer activity, about 0 neutral, <0 antagonist
# [8] = Complete minus Cholesterol-free, greater than 0 enhanced anti-cancer activity, about 0 neutral, below 0 antagonist
# [9] = NCI-H292 cells, FDA drug library screen, cholesterol-free media without statin
# [10] = NCI-H292 cells, FDA drug library screen, complete media
# [11] = complete vs cholesterol-free media, greater than 0 enhanced anti-cancer activity, about 0 neutral, below 0 antagonists
# [12] = NCI-H292 cells, cholesterol-free media with simvastatin 0.04 μM, cell growth value in FDA drug screen
# [13] = NCI-H292 cells, complete media, cell growth value in FDA drug screen
# [14] = complete media minus cholesterol-free media + simvastatin, >0 enhanced anti-cancer activity, about 0 neutral, <0 antagonist
# [15] = NCI-H292 cells, cholesterol-free media without statin, FDA drug library screen
# [16] = NCI-H292 cells, complete media, FDA drug library screen
# [17] = complete vs cholesterol-free media, >0 enhanced anti-cancer activity, about 0 neutral, <0 antagonist
# [18] = NCI-H292 cells, FDA library drug in cholesterol-free media with simvastatin 0.04 μM
# [19] = NCI-H292 cells, FDA library drug in complete media
# [20] = Complete minus Cholesterol-free, greater than 0 enhanced anti-cancer activity, about 0 neutral, below 0 antagonists
# [21] = NCI-H292 cells in cholesterol-free media without statin
# [22] = NCI-H292 cells in complete media
# [23] = NCI-H292 cells, cholesterol-free media with simvastatin 0.04 μM, FDA drug library screen (TABLE 2)
# [24] = NCI-H292 cells, complete media, FDA drug library screen (TABLE 2)
# [25] = complete media minus cholesterol-free media + simvastatin (0.04 μM), >0 enhanced anti-cancer activity, about 0 neutral, <0 antagonist
# [26] = NCI-H292 cells, FDA drug library screen, cholesterol-free media with simvastatin 0.04 μM
compound,measurement,setting,value
CCCCNC(=O)NS(=O)(=O)c1ccc(C)cc1 [Tolbutamide],Difference,[1]; [3],−0.25
same,Cholesterol-free,[1]; [4],1.099
same,Complete,"[1]; NCI-H292 cells, complete media",0.8474
same,Cholesterol-free media + simvastatin (0.04 μM),[2]; [5],1.123
same,Complete Media,[2]; [6],0.9256
same,Difference,[2]; [7],−0.20
Cc1ccc(C(=O)c2cc(O)c(O)c([N+](=O)[O-])c2)cc1 [Tolcapone],Difference,[1]; [8],−0.19
same,Cholesterol-free,[1]; [9],1.149
same,Complete,[1]; [10],0.9627
same,Cholesterol-free media + simvastatin (0.04 μM),[2]; [5],1.114
same,Complete Media,[2]; [6],0.8994
same,Difference,[2]; [7],−0.21
Cc1c(Cl)cccc1Nc1ccccc1C(=O)O [Tolfenamic Acid],Cholesterol-free,[1]; [4],1.332
same,Complete,"[1]; NCI-H292 cells, complete media",0.9309
same,Difference,[1]; [11],−0.40
same,Cholesterol-free media + simvastatin (0.04 μM),[2]; [12],0.9725
same,Complete Media,[2]; [13],0.9986
same,Difference,[2]; [14],0.03
Cc1ccc(C(=O)c2ccc(CC(=O)O)n2C)cc1 [Tolmetin (sodium dihydrate)],Cholesterol-free,[1]; [15],0.7023
same,Complete,[1]; [16],1.262
same,Difference,[1]; [17],0.56
same,Cholesterol-free media + simvastatin (0.04 μM),[2]; [18],1.295
same,Complete Media,[2]; [19],0.94
same,Difference,[2]; [7],−0.35
Cc1ccc(C(=O)c2ccc(CC(=O)O)n2C)cc1 [Tolmetin],Cholesterol-free,[1]; [4],0.9799
same,Complete,"[1]; NCI-H292 cells, complete media",0.6144
same,Difference,[1]; [11],−0.37
same,Cholesterol-free media + simvastatin (0.04 μM),[2]; [18],1.718
same,Complete Media,[2]; [19],1.392
same,Difference,[2]; [7],−0.33
Cc1cccc(N(C)C(=S)Oc2ccc3ccccc3c2)c1 [Tolnaftate],Difference,[1]; [20],−0.53
same,Cholesterol-free,[1]; [21],1.723
same,Complete,[1]; [22],1.191
same,Cholesterol-free media + simvastatin (0.04 μM),[2]; [5],1.419
same,Complete Media,[2]; [6],1.24
same,Difference,[2]; [7],−0.18
Cc1cccc(N2CC(CO)OC2=O)c1 (stereo not drawn) [Toloxatone],Difference,[1]; [20],−0.48
same,Cholesterol-free,[1]; [21],1.574
same,Complete,[1]; [22],1.099
same,Cholesterol-free media + simvastatin (0.04 μM),[2]; [23],1.023
same,Complete Media,[2]; [24],1.032
same,Difference,[2]; [25],0.01
Cc1ccc(C(=O)C(C)CN2CCCCC2)cc1 (stereo not drawn) [Tolperisone (hydrochloride)],Difference,[1]; [3],0.07
same,Cholesterol-free,[1]; [15],1.37
same,Complete,[1]; [16],1.436
same,Cholesterol-free media + simvastatin (0.04 μM),[2]; [12],0.9156
same,Complete Media,[2]; [13],0.9664
same,Difference,[2]; [14],0.05
Cc1ccc(O)c([C@H](CCN(C(C)C)C(C)C)c2ccccc2)c1 [Tolterodine],Cholesterol-free,[1],0.9758
same,Complete,[1],1.051
same,Difference,[1],0.08
same,Cholesterol-free media + simvastatin (0.04 μM),[2],1.169
same,Complete Media,[2],0.8561
same,Difference,[2],−0.31
Cc1cc(-n2c(=O)[nH]c(=O)n(C)c2=O)ccc1Oc1ccc(SC(F)(F)F)cc1 [Toltrazuril],Difference,[1]; [3],−0.07
same,Cholesterol-free,[1]; [15],0.9718
same,Complete,[1]; [16],0.9012
same,Cholesterol-free media + simvastatin (0.04 μM),[2]; [26],0.9815
same,Complete Media,[2]; [10],0.8466
same,Difference,[2]; [7],−0.13
Cc1ccccc1C(=O)Nc1ccc(C(=O)N2CCCC(O)c3cc(Cl)ccc32)c(C)c1 (stereo not drawn) [Tolvaptan],Difference,[1]; [3],−0.06
same,Cholesterol-free,[1]; [15],0.8732
same,Complete,[1]; [16],0.8126
same,Cholesterol-free media + simvastatin (0.04 μM),[2]; [18],2.102
same,Complete Media,[2]; [19],1.367
same,Difference,[2]; [7],−0.73
CC1(C)O[C@@H]2[C@@H](CO[C@@]3(COS(N)(=O)=O)OC(C)(C)O[C@@H]23)O1 [Topiramate],Cholesterol-free,[1]; [4],1.406
same,Complete,"[1]; NCI-H292 cells, complete media",0.9724
same,Difference,[1]; [11],−0.43
same,Cholesterol-free media + simvastatin (0.04 μM),[2]; [12],1.666
same,Complete Media,[2]; [13],1.706
same,Difference,[2]; [14],0.04
N#Cc1cc(-c2n[nH]c(-c3ccncc3)n2)ccn1 [Topiroxostat],Cholesterol-free,[1]; [15],0.764
same,Complete,[1]; [16],1.603
same,Difference,[1]; [17],0.84
same,Cholesterol-free media + simvastatin (0.04 μM),[2]; [23],1.544
same,Complete Media,[2]; [24],1.543
same,Difference,[2]; [25],0.00
CC[C@@]1(O)C(=O)OCc2c1cc1n(c2=O)Cc2cc3c(CN(C)C)c(O)ccc3nc2-1 [Topotecan (Hydrochloride)],Difference,[1]; [3],−0.03
same,Cholesterol-free,[1]; [15],0.05524
same,Complete,[1]; [16],0.02609
same,Cholesterol-free media + simvastatin (0.04 μM),[2]; [26],0.1355
same,Complete Media,[2]; [10],0.04638
same,Difference,[2]; [7],−0.09
Cc1cccc(Nc2ccncc2S(=O)(=O)NC(=O)NC(C)C)c1 [Torsemide],Difference,[1]; [8],−0.16
same,Cholesterol-free,[1]; [9],1.07
same,Complete,[1]; [10],0.914
same,Cholesterol-free media + simvastatin (0.04 μM),[2]; [23],1.055
same,Complete Media,[2]; [24],0.9909
same,Difference,[2]; [25],−0.06
CC(=O)Nc1cccc(-n2c(=O)n(C3CC3)c(=O)c3c(Nc4ccc(I)cc4F)n(C)c(=O)c(C)c32)c1 [Trametinib (DMSO solvate)],Difference,[1]; [3],0.00
same,Cholesterol-free,[1]; [15],0.2835
same,Complete,[1]; [16],0.2824
same,Cholesterol-free media + simvastatin (0.04 μM),[2]; [26],0.4848
same,Complete Media,[2]; [10],0.3787
same,Difference,[2]; [7],−0.11
CC(=O)Nc1cccc(-n2c(=O)n(C3CC3)c(=O)c3c(Nc4ccc(I)cc4F)n(C)c(=O)c(C)c32)c1 [Trametinib],Difference,[1]; [3],−0.06
same,Cholesterol-free,[1]; [15],0.4164
same,Complete,[1]; [16],0.3595
same,Cholesterol-free media + simvastatin (0.04 μM),[2]; [12],0.2423
same,Complete Media,[2]; [13],0.2586
same,Difference,[2]; [14],0.02
CCOC(=O)[C@H](CCc1ccccc1)N[C@@H](C)C(=O)N1[C@H](C(=O)O)C[C@H]2CCCC[C@@H]21 [Trandolapril],Difference,[1]; [8],−0.10
same,Cholesterol-free,[1]; [9],1.068
same,Complete,[1]; [10],0.9671
same,Cholesterol-free media + simvastatin (0.04 μM),[2]; [5],1.441
same,Complete Media,[2]; [6],1.221
same,Difference,[2]; [7],−0.22
NC[C@H]1CC[C@H](C(=O)O)CC1 [Tranexamic acid],Difference,[1]; [20],−0.77
same,Cholesterol-free,[1]; [21],2.288
same,Complete,[1]; [22],1.522
same,Cholesterol-free media + simvastatin (0.04 μM),[2]; [5],1.894
same,Complete Media,[2]; [6],1.678
same,Difference,[2]; [7],−0.22
COc1ccc(/C=C/C(=O)Nc2ccccc2C(=O)O)cc1OC [Tranilast],Difference,[1]; [3],−0.27
same,Cholesterol-free,[1]; [4],0.8255
same,Complete,"[1]; NCI-H292 cells, complete media",0.5543
same,Cholesterol-free media + simvastatin (0.04 μM),[2]; [5],1.221
same,Complete Media,[2]; [6],1.04
same,Difference,[2]; [7],−0.18
N[C@@H]1C[C@H]1c1ccccc1.N[C@@H]1C[C@H]1c1ccccc1.O=S(=O)(O)O [Tranylcypromine (hemisulfate)],Cholesterol-free,[1],1.175
same,Complete,[1],0.8249
same,Difference,[1],−0.35
same,Cholesterol-free media + simvastatin (0.04 μM),[2],0.8773
same,Complete Media,[2],0.7026
same,Difference,[2],−0.17
CC(C)OC(=O)CCC/C=C\C[C@@H]1[C@@H](/C=C/[C@@H](O)COc2cccc(C(F)(F)F)c2)[C@H](O)C[C@@H]1O [Travoprost],Difference,[1]; [20],−1.01
same,Cholesterol-free,[1]; [21],1.92
same,Complete,[1]; [22],0.9075
same,Cholesterol-free media + simvastatin (0.04 μM),[2]; [23],0.9352
same,Complete Media,[2]; [24],0.8818
same,Difference,[2]; [25],−0.05
O=c1n(CCCN2CCN(c3cccc(Cl)c3)CC2)nc2ccccn12 [Trazodone (hydrochloride)],Cholesterol-free,[1]; [4],1.4
same,Complete,"[1]; NCI-H292 cells, complete media",1.032
same,Difference,[1]; [11],−0.37
same,Cholesterol-free media + simvastatin (0.04 μM),[2]; [26],0.8105
same,Complete Media,[2]; [10],1.053
same,Difference,[2]; [14],0.24
Cn1c(=O)cc(N2CCC[C@@H](N)C2)n(Cc2cc(F)ccc2C#N)c1=O [Trelagliptin],Difference,[1]; [3],−0.22
same,Cholesterol-free,[1]; [4],0.9224
same,Complete,"[1]; NCI-H292 cells, complete media",0.705
same,Cholesterol-free media + simvastatin (0.04 μM),[2]; [12],1.142
same,Complete Media,[2]; [13],1.234
same,Difference,[2]; [14],0.09
CS(=O)(=O)OC[C@H](O)[C@@H](O)COS(C)(=O)=O [Treosulfan],Difference,[1]; [20],−0.50
same,Cholesterol-free,[1]; [21],1.319
same,Complete,[1]; [22],0.8211
same,Cholesterol-free media + simvastatin (0.04 μM),[2]; [5],1.216
same,Complete Media,[2]; [6],1.032
same,Difference,[2]; [7],−0.18
CCCCC[C@H](O)CC[C@@H]1[C@H]2Cc3cccc(OCC(=O)O)c3C[C@H]2C[C@H]1O [Treprostinil (sodium)],Difference,[1]; [3],−0.02
same,Cholesterol-free,[1]; [15],1.017
same,Complete,[1]; [16],0.9998
same,Cholesterol-free media + simvastatin (0.04 μM),[2]; [5],1.119
same,Complete Media,[2]; [6],0.898
same,Difference,[2]; [7],−0.22
CCCCC[C@H](O)CC[C@@H]1[C@H]2Cc3cccc(OCC(=O)O)c3C[C@H]2C[C@H]1O [Treprostinil],Difference,[1]; [20],−0.50
same,Cholesterol-free,[1]; [21],1.45
same,Complete,[1]; [22],0.9512
same,Cholesterol-free media + simvastatin (0.04 μM),[2]; [18],1.177
same,Complete Media,[2]; [19],0.8507
same,Difference,[2]; [7],−0.33
CC(C)(C)CC(=O)OCC(=O)[C@@]12OC(C)(C)O[C@@H]1C[C@H]1[C@@H]3CCC4=CC(=O)C=C[C@]4(C)[C@@]3(F)[C@@H](O)C[C@@]12C [Triamcinolone hexacetonide],Difference,[1]; [3],−0.20
same,Cholesterol-free,[1]; [4],0.7329
same,Complete,"[1]; NCI-H292 cells, complete media",0.5285
same,Cholesterol-free media + simvastatin (0.04 μM),[2]; [18],1.053
same,Complete Media,[2]; [19],0.6525
same,Difference,[2]; [7],−0.40
